Data reported in US20240269139A1, “COMPOUNDS FOR TARGETED PROTEIN DEGRADATION OF KINASES” (DANA-FARBER CANCER INSTITUTE, INC., priority 2020, published 2024).
Where two headings read alike, the source gives them in different places.

What was measured:
[1] = molecular target: protein kinases (human kinome) (Homo sapiens, UniProt P04183); format: cell-based; conditions: TK1 (P04183); experiment wp168
[2] = molecular target: protein kinases (human kinome) (Homo sapiens, UniProt P12931); format: cell-based
[3] = molecular target: protein kinases (human kinome) (Homo sapiens, UniProt P45984); format: cell-based; conditions: MAPK9 P45984-1; experiment wp168
[4] = molecular target: protein kinases (human kinome) (Homo sapiens, UniProt Q07912); format: cell-based
[5] = molecular target: protein kinases (human kinome) (Homo sapiens, UniProt P07947); format: cell-based; conditions: YES1 (P07947), experiment wp168
[6] = molecular target: protein kinases (human kinome) (Homo sapiens, UniProt P11802); format: cell-based; conditions: experiment wp168
[7] = molecular target: protein kinases (human kinome) (Homo sapiens, UniProt P35790); format: cell-based; conditions: CHKA P35790; experiment wp168
[8] = molecular target: protein kinases (human kinome) (Homo sapiens, UniProt P16591); format: cell-based
Sequence of protein kinases (human kinome) (Homo sapiens, UniProt P16591) (P16591 whole entry): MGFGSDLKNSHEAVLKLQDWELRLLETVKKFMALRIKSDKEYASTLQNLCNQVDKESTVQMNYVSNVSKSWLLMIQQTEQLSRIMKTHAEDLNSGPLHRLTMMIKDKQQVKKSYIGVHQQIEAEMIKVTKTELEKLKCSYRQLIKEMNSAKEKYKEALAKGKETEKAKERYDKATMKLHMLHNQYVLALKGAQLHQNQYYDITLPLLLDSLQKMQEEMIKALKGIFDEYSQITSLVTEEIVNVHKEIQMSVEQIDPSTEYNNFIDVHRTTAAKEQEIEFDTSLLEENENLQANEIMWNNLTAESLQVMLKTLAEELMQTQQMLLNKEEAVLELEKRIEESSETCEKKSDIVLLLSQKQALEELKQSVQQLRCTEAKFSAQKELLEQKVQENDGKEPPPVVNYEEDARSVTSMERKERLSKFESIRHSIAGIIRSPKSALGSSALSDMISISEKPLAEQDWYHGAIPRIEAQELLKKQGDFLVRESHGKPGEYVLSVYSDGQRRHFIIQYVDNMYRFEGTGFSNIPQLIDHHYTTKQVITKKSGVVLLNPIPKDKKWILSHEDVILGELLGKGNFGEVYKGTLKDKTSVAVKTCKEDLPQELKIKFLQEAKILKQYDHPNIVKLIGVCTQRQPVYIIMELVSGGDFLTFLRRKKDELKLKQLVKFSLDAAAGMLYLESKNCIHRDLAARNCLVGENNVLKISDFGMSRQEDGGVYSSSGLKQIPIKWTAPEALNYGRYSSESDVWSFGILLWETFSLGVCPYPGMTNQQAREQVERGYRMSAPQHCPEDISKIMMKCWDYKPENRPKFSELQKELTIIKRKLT

[9] = molecular target: protein kinases (human kinome) (Homo sapiens, UniProt Q9HBH9); format: cell-based
Sequence of protein kinases (human kinome) (Homo sapiens, UniProt Q9HBH9) (Q9HBH9 whole entry): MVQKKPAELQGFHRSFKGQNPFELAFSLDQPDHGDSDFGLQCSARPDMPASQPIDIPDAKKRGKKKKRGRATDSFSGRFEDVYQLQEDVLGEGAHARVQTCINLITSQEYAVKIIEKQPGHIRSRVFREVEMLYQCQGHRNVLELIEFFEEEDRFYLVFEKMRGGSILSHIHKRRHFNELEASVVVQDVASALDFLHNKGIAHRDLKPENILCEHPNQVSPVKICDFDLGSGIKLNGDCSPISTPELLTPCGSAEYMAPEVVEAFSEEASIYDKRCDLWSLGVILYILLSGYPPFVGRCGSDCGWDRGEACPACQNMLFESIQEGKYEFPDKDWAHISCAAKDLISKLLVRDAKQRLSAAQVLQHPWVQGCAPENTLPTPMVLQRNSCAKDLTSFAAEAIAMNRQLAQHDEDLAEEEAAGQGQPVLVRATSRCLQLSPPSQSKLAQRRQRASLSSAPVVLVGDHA

[10] = molecular target: T1, protein kinases (human kinome) (Homo sapiens, UniProt Q8TAS1); format: cell-based; conditions: experiment wp168
T1 sequence (Q8TAS1 1-419): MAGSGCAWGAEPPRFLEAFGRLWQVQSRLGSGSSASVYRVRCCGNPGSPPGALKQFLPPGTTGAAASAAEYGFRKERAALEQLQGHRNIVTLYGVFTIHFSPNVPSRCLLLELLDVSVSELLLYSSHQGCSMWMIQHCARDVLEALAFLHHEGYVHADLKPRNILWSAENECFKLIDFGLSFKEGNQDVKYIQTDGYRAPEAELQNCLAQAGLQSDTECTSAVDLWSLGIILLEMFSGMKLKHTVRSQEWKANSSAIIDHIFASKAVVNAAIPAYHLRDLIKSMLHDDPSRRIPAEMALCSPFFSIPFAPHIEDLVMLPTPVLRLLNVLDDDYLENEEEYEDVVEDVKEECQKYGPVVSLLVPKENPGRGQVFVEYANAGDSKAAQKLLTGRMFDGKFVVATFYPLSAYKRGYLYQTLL

[11] = molecular target: protein kinases (human kinome) (Homo sapiens, UniProt P53350); format: cell-based; conditions: PLK1 P53350; experiment wp168
[12] = molecular target: protein kinases (human kinome) (Homo sapiens, UniProt Q9H0K1); format: cell-based; conditions: experiment wp168
[13] = molecular target: protein kinases (human kinome) (Homo sapiens, UniProt P53667); format: cell-based; conditions: LIMK1 (P53667-1), experiment wp168
Sequence of protein kinases (human kinome) (Homo sapiens, UniProt P53667) (P53667 whole entry): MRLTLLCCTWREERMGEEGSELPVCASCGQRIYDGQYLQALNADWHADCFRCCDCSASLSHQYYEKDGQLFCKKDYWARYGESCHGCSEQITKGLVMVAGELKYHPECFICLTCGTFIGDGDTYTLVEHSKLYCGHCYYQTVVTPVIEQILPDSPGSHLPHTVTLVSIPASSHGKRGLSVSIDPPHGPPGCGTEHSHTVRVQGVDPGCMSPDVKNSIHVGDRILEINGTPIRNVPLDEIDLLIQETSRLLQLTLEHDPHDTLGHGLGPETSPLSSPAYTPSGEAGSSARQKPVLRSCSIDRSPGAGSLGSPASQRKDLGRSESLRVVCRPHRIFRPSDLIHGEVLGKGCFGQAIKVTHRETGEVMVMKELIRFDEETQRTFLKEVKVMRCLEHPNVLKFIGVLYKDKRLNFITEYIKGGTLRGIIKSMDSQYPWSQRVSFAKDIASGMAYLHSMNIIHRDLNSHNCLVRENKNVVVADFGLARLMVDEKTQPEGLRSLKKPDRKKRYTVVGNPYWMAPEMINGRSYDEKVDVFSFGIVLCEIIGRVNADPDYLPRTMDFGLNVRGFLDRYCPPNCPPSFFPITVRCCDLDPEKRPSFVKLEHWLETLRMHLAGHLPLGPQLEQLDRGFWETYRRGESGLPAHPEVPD

[14] = system: protein kinases (human kinome); format: cell-based
[15] = molecular target: protein kinases (human kinome) (Homo sapiens, UniProt P41240); format: cell-based; conditions: experiment wp168
Sequence of protein kinases (human kinome) (Homo sapiens, UniProt P41240) (P41240 whole entry): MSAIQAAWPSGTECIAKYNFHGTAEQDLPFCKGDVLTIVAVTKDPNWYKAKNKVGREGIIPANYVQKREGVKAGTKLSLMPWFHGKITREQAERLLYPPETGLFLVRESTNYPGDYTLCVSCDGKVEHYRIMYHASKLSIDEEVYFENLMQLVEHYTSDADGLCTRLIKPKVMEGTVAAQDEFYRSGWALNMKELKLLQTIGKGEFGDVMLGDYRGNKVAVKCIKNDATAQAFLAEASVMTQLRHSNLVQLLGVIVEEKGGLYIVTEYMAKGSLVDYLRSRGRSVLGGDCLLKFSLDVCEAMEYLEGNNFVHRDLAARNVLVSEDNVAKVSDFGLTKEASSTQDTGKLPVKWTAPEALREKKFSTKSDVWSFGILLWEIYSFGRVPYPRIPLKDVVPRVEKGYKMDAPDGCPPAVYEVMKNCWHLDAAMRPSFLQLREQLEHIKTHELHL

[16] = molecular target: protein kinases (human kinome) (Homo sapiens, UniProt P51451); format: cell-based
[17] = molecular target: protein kinases (human kinome) (Homo sapiens, UniProt P06239); format: cell-based; conditions: experiment wp168
Sequence of protein kinases (human kinome) (Homo sapiens, UniProt P06239) (P06239 whole entry): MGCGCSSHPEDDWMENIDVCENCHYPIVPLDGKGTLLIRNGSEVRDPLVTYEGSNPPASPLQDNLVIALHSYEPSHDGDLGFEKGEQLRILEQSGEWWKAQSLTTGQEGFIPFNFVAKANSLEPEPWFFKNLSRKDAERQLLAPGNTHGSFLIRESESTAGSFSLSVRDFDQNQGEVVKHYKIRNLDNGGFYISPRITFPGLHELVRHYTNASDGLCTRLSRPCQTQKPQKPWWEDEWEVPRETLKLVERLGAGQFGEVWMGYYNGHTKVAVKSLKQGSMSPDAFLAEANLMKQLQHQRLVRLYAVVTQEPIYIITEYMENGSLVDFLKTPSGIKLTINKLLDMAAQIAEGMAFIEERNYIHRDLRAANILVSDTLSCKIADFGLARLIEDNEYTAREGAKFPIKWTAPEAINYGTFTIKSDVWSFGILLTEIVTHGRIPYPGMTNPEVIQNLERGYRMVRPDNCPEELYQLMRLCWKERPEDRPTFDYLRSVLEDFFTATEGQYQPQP

[18] = molecular target: protein kinases (human kinome) (Homo sapiens, UniProt P49759); format: cell-based
[19] = molecular target: extended human kinome (kinase-like proteins) (Homo sapiens, UniProt Q16875); experiment: Whole cell quantitative proteomics: extended kinome hits; conditions: Accession Q16875; experiment wp168
[20] = molecular target: T2, protein kinases (human kinome) (Homo sapiens, UniProt O14965); format: cell-based
T2 sequence (O14965 1-403): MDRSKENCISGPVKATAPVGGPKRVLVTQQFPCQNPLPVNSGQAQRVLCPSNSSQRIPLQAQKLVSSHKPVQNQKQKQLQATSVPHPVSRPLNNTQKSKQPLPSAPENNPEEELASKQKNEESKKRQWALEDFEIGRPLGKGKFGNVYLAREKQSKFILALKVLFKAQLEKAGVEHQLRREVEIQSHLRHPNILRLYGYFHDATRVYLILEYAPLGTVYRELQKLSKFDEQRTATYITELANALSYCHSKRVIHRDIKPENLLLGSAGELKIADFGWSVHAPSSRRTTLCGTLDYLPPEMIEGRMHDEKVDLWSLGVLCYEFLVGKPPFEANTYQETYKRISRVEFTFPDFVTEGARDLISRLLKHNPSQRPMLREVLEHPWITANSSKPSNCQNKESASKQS

[21] = molecular target: protein kinases (human kinome) (Homo sapiens, UniProt Q00534); format: cell-based; conditions: for logFC CDK6: CDK6 (Q00534), direction down; for logFC of CDK6 (Q00534): down
Sequence of protein kinases (human kinome) (Homo sapiens, UniProt Q00534) (Q00534 whole entry): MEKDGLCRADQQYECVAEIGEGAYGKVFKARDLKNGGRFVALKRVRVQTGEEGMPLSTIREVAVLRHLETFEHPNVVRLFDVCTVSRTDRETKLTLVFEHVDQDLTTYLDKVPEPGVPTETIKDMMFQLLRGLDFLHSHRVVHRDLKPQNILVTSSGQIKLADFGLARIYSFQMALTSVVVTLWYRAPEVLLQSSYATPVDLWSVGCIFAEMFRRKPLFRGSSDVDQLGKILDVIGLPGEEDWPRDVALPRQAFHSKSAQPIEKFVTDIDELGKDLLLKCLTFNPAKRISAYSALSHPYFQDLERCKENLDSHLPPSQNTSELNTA

[22] = molecular target: protein kinases (human kinome) (Homo sapiens, UniProt Q2M2I8); format: cell-based
Sequence of protein kinases (human kinome) (Homo sapiens, UniProt Q2M2I8) (Q2M2I8 whole entry): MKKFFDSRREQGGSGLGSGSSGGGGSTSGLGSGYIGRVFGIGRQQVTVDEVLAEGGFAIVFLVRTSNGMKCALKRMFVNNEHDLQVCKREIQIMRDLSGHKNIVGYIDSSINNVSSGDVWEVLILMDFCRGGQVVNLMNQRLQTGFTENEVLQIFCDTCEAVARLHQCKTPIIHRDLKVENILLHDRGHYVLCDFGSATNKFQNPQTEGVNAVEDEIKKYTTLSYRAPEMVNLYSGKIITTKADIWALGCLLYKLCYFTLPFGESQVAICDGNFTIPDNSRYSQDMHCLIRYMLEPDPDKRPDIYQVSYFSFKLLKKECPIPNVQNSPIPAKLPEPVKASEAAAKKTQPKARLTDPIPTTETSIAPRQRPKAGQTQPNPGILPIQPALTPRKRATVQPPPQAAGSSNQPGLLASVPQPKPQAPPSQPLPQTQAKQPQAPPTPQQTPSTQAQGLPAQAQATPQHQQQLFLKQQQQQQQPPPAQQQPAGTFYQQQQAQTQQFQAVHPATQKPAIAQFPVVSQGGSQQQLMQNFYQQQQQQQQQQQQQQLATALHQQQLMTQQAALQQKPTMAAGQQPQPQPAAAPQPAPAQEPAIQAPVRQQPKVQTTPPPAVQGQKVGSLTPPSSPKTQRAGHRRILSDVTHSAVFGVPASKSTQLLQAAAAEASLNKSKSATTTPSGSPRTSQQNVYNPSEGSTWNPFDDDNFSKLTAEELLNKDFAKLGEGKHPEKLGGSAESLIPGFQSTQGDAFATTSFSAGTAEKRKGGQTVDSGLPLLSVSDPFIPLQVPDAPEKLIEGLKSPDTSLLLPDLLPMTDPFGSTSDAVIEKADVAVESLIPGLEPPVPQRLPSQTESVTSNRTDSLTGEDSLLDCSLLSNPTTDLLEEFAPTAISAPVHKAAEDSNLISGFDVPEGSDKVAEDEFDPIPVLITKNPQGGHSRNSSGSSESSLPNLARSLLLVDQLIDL

[23] = molecular target: T3, protein kinases (human kinome) (Homo sapiens, UniProt P33981); format: cell-based; conditions: experiment wp164
T3 sequence (P33981 1-857): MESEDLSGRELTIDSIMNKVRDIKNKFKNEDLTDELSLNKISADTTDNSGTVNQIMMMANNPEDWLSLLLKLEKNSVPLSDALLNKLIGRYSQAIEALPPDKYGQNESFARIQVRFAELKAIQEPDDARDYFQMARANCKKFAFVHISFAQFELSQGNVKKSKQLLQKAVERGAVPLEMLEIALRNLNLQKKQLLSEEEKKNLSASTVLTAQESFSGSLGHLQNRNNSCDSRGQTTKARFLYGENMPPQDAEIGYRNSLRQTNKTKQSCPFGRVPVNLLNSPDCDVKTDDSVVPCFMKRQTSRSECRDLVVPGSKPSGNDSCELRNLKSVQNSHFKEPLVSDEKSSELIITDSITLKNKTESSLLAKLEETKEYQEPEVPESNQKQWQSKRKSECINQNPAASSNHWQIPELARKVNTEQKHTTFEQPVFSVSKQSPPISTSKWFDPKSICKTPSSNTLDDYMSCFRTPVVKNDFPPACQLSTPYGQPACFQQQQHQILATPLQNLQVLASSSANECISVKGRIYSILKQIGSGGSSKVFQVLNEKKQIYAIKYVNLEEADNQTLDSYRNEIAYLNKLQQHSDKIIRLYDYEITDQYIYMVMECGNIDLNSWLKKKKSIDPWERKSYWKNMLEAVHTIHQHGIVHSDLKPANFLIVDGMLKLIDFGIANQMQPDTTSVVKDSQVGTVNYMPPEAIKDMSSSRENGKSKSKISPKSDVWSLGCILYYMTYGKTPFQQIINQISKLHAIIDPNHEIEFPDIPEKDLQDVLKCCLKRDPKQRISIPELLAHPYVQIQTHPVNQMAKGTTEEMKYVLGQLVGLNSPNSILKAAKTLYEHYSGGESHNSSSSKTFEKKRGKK

[24] = molecular target: protein kinases (human kinome) (Homo sapiens, UniProt Q9HBU6); format: cell-based; conditions: protein ETNK1 (Q9HBU6-1); experiment wp088; down
[25] = molecular target: T4, protein kinases (human kinome) (Homo sapiens, UniProt Q9UEE5); format: cell-based; conditions: STK17A Q9UEE5; experiment wp088
T4 sequence (Q9UEE5 1-414): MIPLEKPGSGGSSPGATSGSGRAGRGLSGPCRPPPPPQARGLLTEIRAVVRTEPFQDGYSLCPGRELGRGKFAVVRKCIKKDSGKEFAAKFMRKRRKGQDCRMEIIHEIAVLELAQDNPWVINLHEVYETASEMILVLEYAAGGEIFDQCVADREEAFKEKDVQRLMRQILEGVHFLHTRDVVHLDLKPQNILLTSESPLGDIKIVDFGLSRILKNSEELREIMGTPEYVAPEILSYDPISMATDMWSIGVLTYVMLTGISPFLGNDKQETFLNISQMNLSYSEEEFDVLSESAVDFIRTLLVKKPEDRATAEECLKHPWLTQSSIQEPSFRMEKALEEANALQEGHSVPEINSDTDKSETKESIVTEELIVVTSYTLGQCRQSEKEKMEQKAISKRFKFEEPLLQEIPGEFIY

[26] = molecular target: protein kinases (human kinome) (Homo sapiens, UniProt Q96GD4); format: cell-based; conditions: experiment wp164
Sequence of protein kinases (human kinome) (Homo sapiens, UniProt Q96GD4) (Q96GD4 whole entry): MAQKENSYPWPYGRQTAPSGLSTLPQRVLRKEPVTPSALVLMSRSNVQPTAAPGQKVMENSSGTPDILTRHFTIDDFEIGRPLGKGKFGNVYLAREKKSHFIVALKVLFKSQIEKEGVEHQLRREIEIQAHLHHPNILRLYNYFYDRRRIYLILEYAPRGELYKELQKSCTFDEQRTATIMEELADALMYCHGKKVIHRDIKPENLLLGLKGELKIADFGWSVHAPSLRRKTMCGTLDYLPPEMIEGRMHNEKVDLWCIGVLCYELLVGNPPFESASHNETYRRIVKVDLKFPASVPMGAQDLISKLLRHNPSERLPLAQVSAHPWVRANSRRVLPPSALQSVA

[27] = molecular target: protein kinases (human kinome) (Homo sapiens, UniProt P50750); format: cell-based; conditions: experiment wp164
Sequence of protein kinases (human kinome) (Homo sapiens, UniProt P50750) (P50750 whole entry): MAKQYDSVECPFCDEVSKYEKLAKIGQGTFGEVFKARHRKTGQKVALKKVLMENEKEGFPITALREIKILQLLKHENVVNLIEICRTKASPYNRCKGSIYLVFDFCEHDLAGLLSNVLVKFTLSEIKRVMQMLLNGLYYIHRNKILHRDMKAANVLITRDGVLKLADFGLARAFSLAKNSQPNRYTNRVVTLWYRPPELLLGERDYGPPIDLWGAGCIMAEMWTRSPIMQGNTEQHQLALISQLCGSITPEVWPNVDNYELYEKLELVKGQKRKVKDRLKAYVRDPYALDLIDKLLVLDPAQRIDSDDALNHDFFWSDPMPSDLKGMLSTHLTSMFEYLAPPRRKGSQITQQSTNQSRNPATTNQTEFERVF

[28] = Experiment wp168, direction down
[29] = AURKB Q96GD4-5, experiment wp088

Cc1ccc(NC(=O)c2cccc(C(F)(F)F)c2)cc1N1Cc2cnc(Nc3ccc(N4CCN(CCOc5cccc6c5C(=O)N(C5CCC(=O)NC5=O)C6=O)CC4)nc3)nc2N(C)C1=O (centres unmarked) [DB0661]
logFC [1]: −0.3523 | logFC of SRC ([2]; Accession P12931, experiment wp168): −0.6685 | logFC of SRC (P12931) ([2]; Experiment wp168): −0.6685 | logFC [3]: −1.961 | logFC MAPK9 [3]: −1.961 | logFC TNK2 (Q07912-1) [4, 28]: −0.3873 | logFC TNK2 ([4]; TNK2 (Q07912-1), experiment wp168): −0.3873 | logFC [5]: −0.5229 | logFC ([5]; direction down): −0.5229 | logFC CDK4 (P11802) [6]: −0.4978 | logFC [7]: −0.3607 | logFC of FER (P16591-1) ([8]; Experiment wp168, down): −0.6143 | logFC of FER ([8]; FER P16591-1, experiment wp168): −0.6143 | logFC MKNK2 (Q9HBH9-1) [9, 28]: −0.5094 | logFC ([9]; MKNK2 (Q9HBH9-1), experiment wp168): −0.5094 | logFC UHMK1 ([10]; Accession Q8TAS1, direction down): −0.416 | logFC UHMK1 ([10]; UHMK1 (Q8TAS1)): −0.416 | logFC [11]: −0.3453 | logFC PLK1 [11]: −0.3453 | logFC of SIK2 ([12]; Accession Q9H0K1): −0.3628 | logFC SIK2 (Q9H0K1) ([12]; direction of change down): −0.3628 | logFC LIMK1 ([13]; direction down): −1.116 | logFC LIMK1 ([13]; down): −1.116 | logFC MAPK8 (P45983-4) [14, 28]: −0.5033 | logFC MAPK8 ([14]; MAPK8 P45983-4, experiment wp168): −0.5033 | logFC ([14]; PTK2B (Q14289-2), experiment wp168, direction down): −1.935 | logFC PTK2B ([14]; PTK2B, accession Q14289-2, experiment wp168, direction of change down): −1.935 | kinases the bifunctional compound degrades ([14]; as stated for the structure in the embodiments): BLK, CDK4, CLK1, CSK, FER, LCK, LIMK1, MAPK8, MAPK9, MKNK2, PLK1, PTK2B, SIKA2, SRC, TNK2, UHMK1, and YES1 | Kinase hits ([14]; kinases significantly downregulated vs DMSO (fold change cutoff −1.25, P-value<0.01), ≤8 h, 0.1-5 μM degrader, 7 cell lines): BLK, CDK4, CLK1, CSK, FER, LCK, LIMK1, MAPK8, MAPK9, MKNK2, PLK1, PTK2B, SIKa2, SRC, TNK2, UHMK1, YES1 | Total no. kinase hits ([14]; number of degraded kinases per library compound): 17 | logFC of CSK ([15]; Accession P41240): −1.526 | logFC CSK ([15]; CSK (P41240), down): −1.526 | logFC BLK ([16]; BLK (P51451), direction down, experiment wp168): −1.428 | logFC of BLK (P51451) ([16]; Experiment wp168, down): −1.428 | logFC LCK ([17]; LCK P06239-1): −0.4717 | logFC LCK ([17]; LCK, accession P06239-1, direction of change down): −0.4717 | logFC CLK1 ([18]; CLK1 P49759, experiment wp168): −0.3319 | logFC of CLK1 (P49759) ([18]; Experiment wp168): −0.3319 | logFC PFKFB3 [19]: −0.4392

O=C(CCCCCCNC(=O)COc1cccc2c1C(=O)N(C1CCC(=O)NC1=O)C2=O)NCCOc1ccc(Nc2ncc3ccc(=O)n(C4CC5CCC4C5)c3n2)cc1 (centres unmarked) [SB1.G.194]
logFC AURKA (O14965) ([20]; experiment wp088): −1.175 | logFC AURKA (O14965) ([20]; experiment wp164): −2.035 | logFC CDK6 ([21]; experiment wp088): −0.4731 | logFC CDK6 ([21]; experiment wp164): −1.23 | logFC of CDK6 (Q00534) ([21]; Experiment wp088): −0.4731 | logFC of CDK6 (Q00534) ([21]; Experiment wp164): −1.23 | logFC AAK1 ([22]; AAK1 (Q2M218-1), experiment wp088, down): −0.3482 | logFC AAK1 ([22]; AAK1 (Q2M218-1), experiment wp164, down): −0.379 | logFC AAK1 ([22]; AAK1, accession Q2M218-1, experiment wp088, direction of change down): −0.3482 | logFC AAK1 ([22]; AAK1, accession Q2M218-1, experiment wp164, direction of change down): −0.379 | logFC TTK ([23]; Accession P33981): −0.4279 | logFC TTK (P33981) [23]: −0.4279 | logFC ETNK1 [24]: −0.3662 | logFC [25]: −0.6434 | logFC STK17A [25]: −0.6434 | logFC AURKB ([26]; AURKB Q96GD4): −0.4883 | logFC of AURKB (Q96GD4) [26]: −0.4883 | logFC CDK9 (P50750) [27]: −0.8391 | logFC of CDK9 (P50750) [27]: −0.8391 | logFC [14, 29]: −0.3846 | logFC AURKB [14, 29]: −0.3846 | logFC FGFR2 (P21802-11) ([14]; Experiment wp088, direction of change down): −0.4804 | logFC FGFR2 ([14]; protein FGFR2 (P21802-11), experiment wp088, down): −0.4804
